In paper PMC11150261, “Evaluation of antibacterial, cytotoxicity, and apoptosis activity of novel chromene-sulfonamide hybrids synthesized under solvent-free conditions and 3D-QSAR modeling studies” (Scientific Reports, 2024):
Values after ≈ are worked out from the molar mass of the structure shown. “Also recorded” adds a separate entry of the source. Like-named read-outs stand apart in the source and are kept apart here.

Assays:
E. coli ATCC 25922 = experiment: Broth microdilution MIC; type: cell-based; conditions: for MIC: Escherichia coli, ATCC25922; for MIC effect on E. coli: SAR effect diagram
Method: (§1) A broth microdilution method was utilized to explore the minimum inhibitory concentrations (MIC) of all the newly synthesized compounds against E. coli ATCC 25922 and S. aureus ATCC 25923. Test compounds were prepared using dimethyl sulfoxide (DMSO) as a stock solution, followed by serial dilutions in Mueller Hinton broth containing up to one percent DMSO. At the end, a diluted bacterial suspension from a 0.5 McFarland tube was added to all the wells (the final volume of each well was 1 × 10^5 CFU/ml). In the growth control, a culture medium with bacteria was used as a positive control, and a culture medium without bacteria was used as a negative control (sterility control). The MIC was the lowest concentration of the synthesized compounds that produced no growth on the plate. Sulfisoxazole, functioning as a sulfonamide antibiotic, and gentamicin were employed in a comparative analysis of antibacterial activity, cytotoxicity, and apoptosis assessment.

S. aureus ATCC 25923 = experiment: Broth microdilution MIC; type: cell-based; conditions: for MIC effect on S. aureus: SAR effect diagram, Table 6; for MIC: Staphylococcus aureus, ATCC25923
Method: as §1

fibroblast L929 cells = experiment: Cytotoxicity assay by MTT; type: cell-based; conditions: Mus musculus, fibroblast L929 cell line, 24 h
Method: MTT was applied to evaluate the cytotoxicity of the newly synthesized compounds against fibroblast L929 cells (Pasteur Institute, Tehran, Iran). Briefly, 100 μl of cell suspension (1 × 10^4 cells/well) in RPMI 1640 medium, as seeded in 96-well microplates and incubated for 24 h (37 °C, 5% CO2 air humidified). After removing the old media, 100 µl of each of the newly synthesized compounds was added to each well at different concentrations. The plates were incubated for another 24 h in the same condition. To determine the positive and negative controls, doxorubicin and DMSO were used. Cell survival was determined by adding 10 µL of an MTT solution (5 mg/ml in PBS) to each well and incubating at 37 °C for 3 h. The previous MTT-containing media was then removed, and 100 µL DMSO was pipetted into each well to dissolve the produced formazan crystals. Using an ELISA plate reader (Startfix-2100, Awareness, USA), absorbance was measured at 570 nm. By plotting the percentage of cytotoxicity versus concentration of the produced compounds, the concentrations that inhibit half of the cell population (IC50) were determined. A mean and standard deviation (SD) are used to represent the results. The percentage cell viability was calculated using the formula: Viability=Absorbance \, of \, treated \, cells-background \, absorbance(b)/Absorbance \, of \, untreated \, cells(c)-background \, absorbance(b)×100 where (b) = blank, and (c) = control.

[1] = Apoptosis Annexin V binding assay (flow cytometry); type: cell-based; conditions: mouse, L929 fibroblast cells; L929, IC50 concentration, Annexin V-FITC/PI
Method: (§2) To detect apoptosis, the Annexin V binding assay was used. The assay was performed according to the manufacturer's instructions using a FITC Annexin V Apoptosis Detection Kit with PI from BioLegend® (San Diego, California). To conduct this test, the fibroblast L929 cell line (Pasteur Institute, Tehran, Iran) was treated with various concentrations of the newly synthesized compounds and then incubated for 24 h at 37 °C with 5% CO2. Subsequently, each well's supernatant was removed and the cells were washed with PBS. Each well was then filled with 500 μl of Annexin-binding buffer (10 mM HEPES, 140 mM NaCl, and 2.5 mM CaCl2, pH 7.4) and 10 μl of Annexin V and PI. For 15 min, the plates were incubated at room temperature and kept away from light. After incubation, using a BD FACSCalibur flow cytometer (Biosciences, San Jose, CA, USA), the cells were examined after incubation. FlowJo software (version 10.5.3, TreeStar Incorporated, Ashland, OR) was used to analyze flow cytometry data.

[2] = test system: fibroblast L929 cell line; experiment: Apoptosis Annexin V binding assay (flow cytometry); type: cell-based; conditions: for induced cell death: L929 cells, 24 h, IC50 concentration of each compound; for apoptotic effects: at the IC50 concentration
Method: as §2

[3] = Table 6, antibacterial activity against E. coli, read-out: MIC for E. coli ATCC 25922
[4] = microdilution method, read-out: Minimum inhibitory concentrations (MIC) E. coli ATCC 25922
[5] = Table 7, read-out: MIC for S. aureus
[6] = microdilution method, read-out: Minimum inhibitory concentrations (MIC) S. aureus ATCC 25923

Structure (SMILES)	MIC (E. coli ATCC 25922; [3])	MIC (E. coli ATCC 25922; [4])	MIC effect on E. coli (E. coli ATCC 25922)	MIC effect on S. aureus (S. aureus ATCC 25923)	MIC (S. aureus ATCC 25923; [5])	MIC (S. aureus ATCC 25923; [6])	IC50 (fibroblast L929 cells)	viability at 24 h [1]	induced cell death [2]	melting point	antibacterial effect on E. coli (MIC results) (E. coli ATCC 25922)	antibacterial effect on S. aureus (MIC results) (S. aureus ATCC 25923)	apoptotic effects [2]
COc1ccc(C2C(C#N)=C(N)Oc3cc(NS(=O)(=O)c4ccc(C)cc4)ccc32)cc1 (centres unmarked) [1b, N-[2-amino-3-cyano-4-(4-methoxy-phenyl)-4H-chromene-7-yl]-4-methyl-benzene sulfonamide]	256 µg/mL (≈ 572 µM)	256 µg/mL (≈ 572 µM)	Neutral	Negative	> 512 µg/mL	> 512 µg/mL	139 µg/mL (≈ 311 µM)	55%	42.29%				
COc1ccccc1C1C(C#N)=C(N)Oc2cc(NS(=O)(=O)c3ccc(C)cc3)ccc21 (centres unmarked) [2b, N-[2-amino-3-cyano-4-(2-methoxy-phenyl)-4H-chromene-7-yl]-4-methyl-benzene sulfonamide]	128 µg/mL (≈ 286 µM)	128 µg/mL (≈ 286 µM)	Positive	Negative	> 512 µg/mL	> 512 µg/mL	229 µg/mL (≈ 512 µM)			180 to 183 °C			
COc1ccc(C2C(C#N)=C(N)Oc3cc(NS(=O)(=O)c4ccc(C)cc4)ccc32)cc1OC (centres unmarked) [3b, N-[2-amino-3-cyano-4-(3,4-dimethoxy-phenyl)-4H-chromene-7-yl]-4-methyl-benzene sulfonamide]	> 512 µg/mL	> 512 µg/mL	neutral or negative; also recorded: Negative	Negative	> 512 µg/mL	> 512 µg/mL	219 µg/mL (≈ 459 µM)			127 to 130 °C			
Cc1ccc(S(=O)(=O)Nc2ccc3c(c2)OC(N)=C(C#N)C3c2ccc(Cl)cc2)cc1 (centres unmarked) [4b, N-[2-amino-3-cyano-4-(4-chloro-phenyl)-4H-chromene-7-yl]-4-methyl-benzene sulfonamide]	128 µg/mL (≈ 283 µM)	128 µg/mL (≈ 283 µM)	Positive	Neutral	256 µg/mL (≈ 566 µM)	256 µg/mL (≈ 566 µM)	152 µg/mL (≈ 336 µM)	77.4%	22.2%				
CC(=O)Nc1ccc(S(=O)(=O)Nc2ccc3c(c2)OC(N)=C(C#N)C3c2ccccc2)cc1 (centres unmarked) [5b, N-[4-(2-amino-3-cyano-4-phenyl-4H-chromen-7-ylsulfamoyl)-phenyl]-acetamide]	128 µg/mL (≈ 278 µM)	128 µg/mL (≈ 278 µM)	Positive	Positive	128 µg/mL (≈ 278 µM)	128 µg/mL (≈ 278 µM)	173 µg/mL (≈ 376 µM)			240 to 243 °C			
CC(=O)Nc1ccc(S(=O)(=O)Nc2ccc3c(c2)OC(N)=C(C#N)C3c2cccc(Oc3ccccc3)c2)cc1 (centres unmarked) [6b, N-[4-[2-amino-3-cyano-4-(3-phenoxy-phenyl)-4H-chromene-7-ylsulfamoyl]-phenyl}-acetamide]	64 µg/mL (≈ 116 µM)	64 µg/mL (≈ 116 µM)	Positive	Neutral	256 µg/mL (≈ 463 µM)	256 µg/mL (≈ 463 µM)	114 µg/mL (≈ 206 µM)	46%	53.85%		robust antibacterial effect	robust antibacterial effect	
CC(=O)Nc1ccc(S(=O)(=O)Nc2ccc3c(c2)OC(N)=C(C#N)C3c2ccc(F)cc2)cc1 (centres unmarked) [7b, N-[4-[2-amino-3-cyano-4-(4-fluoro-phenyl)-4H-chromene-7-ylsulfamoyl]-phenyl}-acetamide]	128 µg/mL (≈ 267 µM)	128 µg/mL (≈ 267 µM)	Positive	Positive	128 µg/mL (≈ 267 µM)	128 µg/mL (≈ 267 µM)	182 µg/mL (≈ 380 µM)			230 to 233 °C			
CC(=O)Nc1ccc(S(=O)(=O)Nc2ccc3c(c2)OC(N)=C(C#N)C3c2ccc(Cl)cc2)cc1 (centres unmarked) [8b, N-[4-[2-amino-3-cyano-4-(4-chloro-phenyl)-4H-chromene-7-ylsulfamoyl]-phenyl}-acetamide]	64 µg/mL (≈ 129 µM)	64 µg/mL (≈ 129 µM)	Positive	Positive	32 µg/mL (≈ 64.7 µM)	32 µg/mL (≈ 64.7 µM)	90 µg/mL (≈ 182 µM)	43.2%	56.8%		robust antibacterial effect	robust antibacterial effect	
COc1ccc(C2C(C#N)=C(N)Oc3cc(NS(=O)(=O)c4ccc(NC(C)=O)cc4)ccc32)cc1OC (centres unmarked) [9b, N-[4-[2-amino-3-cyano-4-(3,4-dimethoxy-phenyl)-4H-chromene-7-ylsulfamoyl]-phenyl}-acetamide]	256 µg/mL (≈ 492 µM)	256 µg/mL (≈ 492 µM)	neutral or negative; also recorded: Neutral	Negative	> 512 µg/mL	> 512 µg/mL	234 µg/mL (≈ 450 µM)			235 to 238 °C			
CSc1ccc(C2C(C#N)=C(N)Oc3cc(NS(=O)(=O)c4ccccc4)ccc32)cc1 (centres unmarked) [10b, N-(2-amino-3-cyano-4-(4-(methylthio)phenyl)-4H-chromen-7-yl)benzenesulfonamide]	256 µg/mL (≈ 569 µM)	256 µg/mL (≈ 569 µM)	neutral or negative; also recorded: Neutral	Negative	> 512 µg/mL	> 512 µg/mL	247 µg/mL (≈ 549 µM)			135 to 138 °C			
N#CC1=C(N)Oc2cc(NS(=O)(=O)c3ccccc3)ccc2C1c1ccccc1F (centres unmarked) [11b, N-(2-amino-3-cyano-4-(2-fluorophenyl)-4H-chromen-7-yl) benzenesulfonamide]	256 µg/mL (≈ 607 µM)	256 µg/mL (≈ 607 µM)	neutral or negative; also recorded: Neutral	Neutral	256 µg/mL (≈ 607 µM)	256 µg/mL (≈ 607 µM)	162 µg/mL (≈ 384 µM)			122 to 125 °C			
CNC(C)C1CCC(N)C(OC2C(N)CC(N)C(OC3OCC(C)(O)C(NC)C3O)C2O)O1 (centres unmarked) [Gentamicin, reference compound]		4 µg/mL (≈ 8.38 µM)				4 µg/mL (≈ 8.38 µM)	182 µg/mL (≈ 381 µM)						neither Sulfisoxazole nor Gentamicin demonstrated apoptotic effects
Cc1noc(NS(=O)(=O)c2ccc(N)cc2)c1C [Sulfisoxazole, reference compound]		256 µg/mL (≈ 958 µM)				256 µg/mL (≈ 958 µM)	218 µg/mL (≈ 816 µM)						neither Sulfisoxazole nor Gentamicin demonstrated apoptotic effects
